How the values were obtained:
Assay in all cases: Bliss interaction score (quartile over a dose matrix) (fitness difference); higher = more antagonism (negative = synergy)
S. aureus Newman = system: S. aureus Newman
Outline: (§1)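 The Bliss score is observed fitness minus expected fitness, where the expected value is the product of single-drug fitness values inferred from combination data. Fitness is OD595 at entry into stationary phase normalised to the plate's robust no-drug mean and capped at 1. Scores are reported as quartiles spanning technical, biological and donor/recipient replicates.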

S. aureus DSM 20231 = system: S. aureus DSM 20231
Outline: as §1

S. pneumoniae D39V = system: S. pneumoniae D39V
Outline: as §1

B. subtilis 168 = system: B. subtilis 168
Outline: as §1
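Further: first quartile when negative (synergy) and third quartile when positive (antagonism).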

Row | SMILES | Bliss interaction score (S. aureus Newman) | Bliss interaction score (S. aureus DSM 20231) | Bliss interaction score (S. pneumoniae D39V) | Bliss interaction score (B. subtilis 168) | Bliss interaction score (S. aureus Newman; main component drawn) | Bliss interaction score (S. aureus DSM 20231; main component drawn) | Bliss interaction score (S. pneumoniae D39V; main component drawn) | Bliss interaction score (B. subtilis 168; main component drawn)
1 | CN(N=O)C(=O)N[C@@H](C=O)[C@@H](O)[C@H](O)[C@H](O)CO [Streptozotocin] + CC[C@H]1OC(=O)[C@H](C)C(=O)[C@H](C)[C@@H](O[C@@H]2O[C@H](C)C[C@H](N(C)C)[C@H]2O)[C@](C)(OC)C[C@@H](C)C(=O)[C@H](C)[C@H]2N(CCCCn3cnc(-c4cccnc4)c3)C(=O)O[C@]12C [Telithromycin] | -0.0223 | 0.0346 | 0.0699 | 0.0498 |  |  |  | 
2 | Oc1cc(Cl)ccc1Oc1ccc(Cl)cc1Cl [Triclosan] + COc1cc(Cc2cnc(N)nc2N)cc(OC)c1OC [Trimethoprim] | 0.0267 | -0.0451 | 0.113 | 0.13 |  |  |  | 
3 | O=C(O)[C@H]1/C(=C/CO)O[C@@H]2CC(=O)N21 [Clavulanic] + CN[C@H](CC(C)C)C(=O)N[C@H]1C(=O)N[C@@H](CC(N)=O)C(=O)N[C@H]2C(=O)N[C@H]3C(=O)N[C@H](C(=O)N[C@H](C(=O)O)c4cc(O)cc(O)c4-c4cc3ccc4O)[C@H](O)c3ccc(c(Cl)c3)Oc3cc2cc(c3O[C@@H]2O[C@H](CO)[C@@H](O)[C@H](O)[C@H]2O[C@H]2C[C@](C)(N)[C@H](O)[C@H](C)O2)Oc2ccc(cc2Cl)[C@H]1O [Vancomycin] | -0.0409 | 0.0812 | -0.0704 | -0.136 |  |  |  | 
4 | CC1=C(C(=O)O)N2C(=O)[C@@H](NC(=O)[C@H](N)c3ccccc3)[C@H]2SC1 [Cephalexin] + CN[C@H](CC(C)C)C(=O)N[C@H]1C(=O)N[C@@H](CC(N)=O)C(=O)N[C@H]2C(=O)N[C@H]3C(=O)N[C@H](C(=O)N[C@H](C(=O)O)c4cc(O)cc(O)c4-c4cc3ccc4O)[C@H](O[C@H]3C[C@](C)(N)[C@@H](O)[C@H](C)O3)c3ccc(c(Cl)c3)Oc3cc2cc(c3O[C@@H]2O[C@H](CO)[C@@H](O)[C@H](O)[C@H]2O[C@H]2C[C@](C)(NCc3ccc(-c4ccc(Cl)cc4)cc3)[C@@H](O)[C@H](C)O2)Oc2ccc(cc2Cl)[C@H]1O [Oritavancin] | 0.104 | 0.0767 | 0.069 | 0.0217 |  |  |  | 
5 | O=C(O)[C@H]1/C(=C/CO)O[C@@H]2CC(=O)N21 [Clavulanic] + Cc1ncc([N+](=O)[O-])n1CCO [Metronidazole] | -0.112 | 0.0966 | 0.0632 | 0.0385 |  |  |  | 
6 | CNC(C)C1CCC(N)C(OC2C(N)CC(N)C(OC3OCC(C)(O)C(NC)C3O)C2O)O1 (stereo not given) [Gentamicin] + Oc1cc(Cl)ccc1Oc1ccc(Cl)cc1Cl [Triclosan] |  |  |  |  | 0.0182 | -0.0821 | 0.0731 | -0.17
7 | O=C(O)[C@H]1/C(=C/CO)O[C@@H]2CC(=O)N21 [Clavulanic] + Cn1nnc(-c2ccc(-c3ccc(N4C[C@H](CO)OC4=O)cc3F)cn2)n1 [Tedizolid] | 0.255 | -0.18 | -0.0878 | 0.0942 |  |  |  | 
8 | CC[C@H]1OC(=O)[C@H](C)[C@@H](O[C@H]2C[C@@](C)(OC)[C@@H](O)[C@H](C)O2)[C@H](C)[C@@H](O[C@@H]2O[C@H](C)C[C@H](N(C)C)[C@H]2O)[C@](C)(O)C[C@@H](C)CN(C)[C@H](C)[C@@H](O)[C@]1(C)O [Azithromycin] + CO[C@H]1/C=C/O[C@@]2(C)Oc3c(C)c(O)c4c(O)c(c(/C=N/N5CCN(C)CC5)c(O)c4c3C2=O)NC(=O)/C(C)=C\C=C\[C@H](C)[C@H](O)[C@@H](C)[C@@H](O)[C@@H](C)[C@H](OC(C)=O)[C@@H]1C [Rifampicin] | 0.0263 | 0.0531 | -0.0821 | 0.0851 |  |  |  | 
9 | O=C(O)[C@H]1/C(=C/CO)O[C@@H]2CC(=O)N21 [Clavulanic] + CC(=O)O[C@H]1C[C@@]2(C)[C@@H](C[C@@H](O)[C@H]3[C@@]4(C)CC[C@@H](O)[C@@H](C)[C@@H]4CC[C@@]32C)/C1=C(\CCC=C(C)C)C(=O)O [Fusidic acid] | 0.209 | -0.265 | -0.0441 | -0.0604 |  |  |  | 
10 | CC1=C(C(=O)O)N2C(=O)[C@@H](NC(=O)[C@H](N)c3ccccc3)[C@H]2SC1 [Cephalexin] + CC[C@H]1OC(=O)[C@H](C)[C@@H](O[C@H]2C[C@@](C)(OC)[C@@H](O)[C@H](C)O2)[C@H](C)[C@@H](O[C@@H]2O[C@H](C)C[C@H](N(C)C)[C@H]2O)[C@](C)(O)C[C@@H](C)C(=O)[C@H](C)[C@@H](O)[C@]1(C)O [Erythromycin] | 0.0826 | -0.0356 | 0.0656 | -0.0405 |  |  |  | 
11 | CC1=C(C(=O)O)N2C(=O)[C@@H](NC(=O)[C@H](N)c3ccccc3)[C@H]2SC1 [Cephalexin] + COc1cccc2c1C(=O)c1c(O)c3c(c(O)c1C2=O)C[C@@](O)(C(=O)CO)C[C@@H]3O[C@H]1C[C@H](N)[C@H](O)[C@H](C)O1 [Doxorubicin] | -0.0552 | 0.0343 | -0.111 | 0.084 |  |  |  | 
12 | O=C(O)[C@H]1/C(=C/CO)O[C@@H]2CC(=O)N21 [Clavulanic] + C[C@H]1c2cccc(O)c2C(=O)C2=C(O)[C@]3(O)C(=O)C(C(N)=O)=C(O)[C@@H](N(C)C)[C@@H]3[C@@H](O)[C@@H]21 [Doxycycline] | 0.268 | -0.273 | -0.0431 | 0.0656 |  |  |  | 
13 | O=C(O)[C@H]1/C(=C/CO)O[C@@H]2CC(=O)N21 [Clavulanic] + CC(C1CCC(C(O1)OC2C(CC(C(C2O)OC3C(C(C(CO3)(C)O)NC)O)N)N)N)NC [Gentamicin] |  |  |  |  | 0.288 | -0.273 | 0.0396 | 0.105
14 | CC1=C(C(=O)O)N2C(=O)[C@@H](NC(=O)[C@H](N)c3ccccc3)[C@H]2SC1 [Cephalexin] + C[C@@H]1O[C@@H]1P(=O)(O)O [Fosfomycin] | 0.134 | 0.038 | -0.111 | -0.0491 |  |  |  | 
15 | O=C(O)[C@H]1/C(=C/CO)O[C@@H]2CC(=O)N21 [Clavulanic] + C[C@H]1COc2c(N3CCN(C)CC3)c(F)cc3c(=O)c(C(=O)O)cn1c23 [Levofloxacin] | 0.242 | -0.222 | -0.197 | -0.024 |  |  |  | 
